In BindingDB's records for doi:10.1158/1535-7163.MCT-07-0352 (Saic-Frederick, 2007):

target: T1, Broad substrate specificity ATP-binding cassette transporter ABCG2 (Homo sapiens, UniProt Q9UNQ0); assay: Screening Assay for ABCG2 Inhibitors; conditions: pH 7.4; 37 °C
T1 sequence (Q9UNQ0 whole entry): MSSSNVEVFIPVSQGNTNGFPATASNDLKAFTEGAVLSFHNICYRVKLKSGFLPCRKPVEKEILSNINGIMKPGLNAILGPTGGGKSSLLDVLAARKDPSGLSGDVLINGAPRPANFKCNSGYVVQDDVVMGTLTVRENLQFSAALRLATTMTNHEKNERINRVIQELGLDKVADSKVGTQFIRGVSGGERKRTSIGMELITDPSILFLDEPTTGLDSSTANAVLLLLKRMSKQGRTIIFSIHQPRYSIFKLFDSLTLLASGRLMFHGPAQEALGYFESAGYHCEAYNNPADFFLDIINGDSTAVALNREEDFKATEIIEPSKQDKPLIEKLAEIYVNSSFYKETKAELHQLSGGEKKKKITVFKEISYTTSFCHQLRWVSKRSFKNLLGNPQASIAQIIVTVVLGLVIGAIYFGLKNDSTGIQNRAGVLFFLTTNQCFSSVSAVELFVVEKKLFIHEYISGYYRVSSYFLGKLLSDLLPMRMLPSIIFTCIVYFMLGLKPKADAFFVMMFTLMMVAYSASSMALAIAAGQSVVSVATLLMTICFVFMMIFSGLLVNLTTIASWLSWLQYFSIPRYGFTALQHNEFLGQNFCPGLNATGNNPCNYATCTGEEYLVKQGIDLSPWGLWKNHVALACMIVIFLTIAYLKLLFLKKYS
Method: IC50 and maximal activities for inhibition of PhA accumulation were determined from dose-response curves. The accumulation of PhA, a fluorescent ABCG2 substrate, formed the basis of the assay for inhibitors of ABCG2 activity. NCI-H460/MX20 cells were transferred to black-walled, clear-bottomed 384-well polylysine-coated assay plates (Corning) and allowed to attach for several hours. PhA was added, immediately followed by compounds or vehicle (DMSO/PBS) control and incubated for an additional 18 h. After removal of medium and washing with PBS containing Ca2+ and Mg2+, fluorescence intensity was read on a Tecan Safire fluorescence plate reader in bottom read mode (395 nm excitation, 670 nm emission). Each plate had control wells containing Fumitremorgin C (FTC). Data were normalized to FTC and reported as the percentage of FTC fluorescence. Apparent IC50 values were calculated from dose-response data using SigmaPlot (SPSS, Inc., Chicago) 4-parameter logistic nonlinear regression analysis.

IC50 [µM]	Structure (SMILES)
5.4	Cc1ccc(NC(=O)c2cc3ccccc3cc2O)c(C)c1 [NSC306698]
4.6	NN=C1C(OC(=O)Nc2cccc(Cl)c2)=Nc2ccccc21 [NSC320852]
5.8	Cc1[nH]n(C(=O)c2ccncc2)c(=O)c1N=Nc1ccc2ccccc2c1 [NSC303769]

Structure (SMILES)	IC50 [µM]
CC(C)C1(NC(=O)C2CC3c4cccc5[nH]cc(c45)CC3N(C)C2)OC2(O)C3CCCN3C(=O)C(Cc3ccccc3)N2C1=O (stereo not given) [Dihydroergocristine]	11.8
CC1CCC2(OC1)OC1C(O)C3C4CCC5CC(OC6OC(CO)C(OC7OC(CO)C(O)C(OC8OCC(O)C(O)C8O)C7OC7OC(CO)C(O)C(OC8OC(CO)C(O)C(O)C8O)C7O)C(O)C6O)C(O)CC5(C)C4CCC3(C)C1C2C (stereo not given) [Digitonin]	9.7
